According to US20070093476A1, “Novel compounds and their use in medicine,as antidiabetic and hypolipidemic agents, process for their preparation and pharmaceutical compositions containing them” (priority 2003, published 2007):
Counter-ions that a name gives are not always drawn. Like-named read-outs stand apart in the source and are kept apart here.

Assays:
[1] = tested on: Swiss albino mice; test: Plasma triglyceride lowering activity in Swiss albino mice; type: in vivo
Description: b) Plasma Triglyceride and Total Cholesterol Lowering Activity in Swiss Albino Mice and Guinea Pigs
Male Swiss albino mice (SAM) and male Guinea pigs are obtained from NIN and housed in DRF animal house. All these animals are maintained under 12 hour light and dark cycle at 25±1° C. Animals are given standard laboratory chow (NIN, Hyderabad, India) and water, ad libitum. SAM of 20-25 g body weight range and Guinea pigs of 500-700 g body weight range are used (Oliver, P., Plancke, M. O., Marzin, D., Clavey, V., Sauzieres, J and Fruchart, J. C. Effects of fenofibrate, gemfibrozil and nicotinic acid on plasma lipoprotein levels in normal and hyperlipidemic mice. Atherosclerosis. 1988. 70 : 107-114).
The test compounds can be administered orally to Swiss albino mice at 0.3 to 30 mg/kg/day dose for 6 days. Control mice are treated with vehicle (0.25% Carboxymethylcellulose; dose 10 ml/kg). The test compounds are administered orally to Guinea pigs at 0.3 to 30 mg/kg/day dose for 6 days. Control animals are treated with vehicle (0.25% Carboxymethylcellulose; dose 5 ml/kg).
The blood samples can be collected in fed state 1 hour after drug administration on 0 and 6 day of treatment. The blood can be collected from the retro-orbital sinus through heparinised capillary in EDTA containing tubes. After centrifugation, plasma sample was separated for triglyceride and total cholesterol (Wieland, O. Methods of Enzymatic analysis. Bergermeyer, H. O., Ed., 1963. 211-214; Trinder, P. Ann. Clin. Biochem. 1969. 6 : 24-27). Measurement of plasma triglyceride, total cholesterol and HDL are done using commercial kits (Dr. Reddy's Diagnostic Division, Hyderabad, India).

[2] = biological target: T1, hPPARα (Homo sapiens, UniProt Q07869); test: Determination of hPPARα activity (GAL4-LBD luciferase reporter transactivation in HEK-293 cells); type: cell-based; details: 50 μM compound
T1 construct: expressed in transfected cells; host or cells: HEK-293
T1 sequence (Q07869 239-466 limits assumed): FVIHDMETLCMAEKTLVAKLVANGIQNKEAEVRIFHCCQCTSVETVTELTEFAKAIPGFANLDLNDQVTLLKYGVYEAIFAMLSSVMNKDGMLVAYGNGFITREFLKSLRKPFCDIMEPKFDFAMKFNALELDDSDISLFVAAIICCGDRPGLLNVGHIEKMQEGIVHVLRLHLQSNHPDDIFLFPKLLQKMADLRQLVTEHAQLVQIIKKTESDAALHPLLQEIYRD
Description: a) Determination of hPPARα Activity Ligand binding domain of hPPARα was fused to […] of Yeast transcription factor GAL4 in eucaryotic expression vector. Using superfect (Qiagen, Germany) as transfecting reagent HEK-293 cells are transfected with this plasmid and a reporter plasmid harboring the luciferase gene driven by a GAL4 specific promoter. Compound can be added at different concentrations after 42 hrs of transfection and incubated overnight. Luciferase activity as a function of compound binding/activation capacity of PPARα will be measured using Packard Luclite kit (Packard, USA) in Top Count (Ivan Sadowski, Brendan Bell, Peter Broag and Melvyn Hollis. Gene. 1992. 118 : 137-141; Superfect Transfection Reagent Handbook. February 1997. Qiagen, Germany).

[3] = biological target: T2, hPPARγ1 (Homo sapiens, UniProt P37231); test: Determination of hPPARγ activity (GAL4-LBD luciferase reporter transactivation in HEK-293 cells); type: cell-based; details: 1 μM compound
T2 construct: expressed in transfected cells; host or cells: HEK-293
T2 sequence (P37231 238-503 limits assumed): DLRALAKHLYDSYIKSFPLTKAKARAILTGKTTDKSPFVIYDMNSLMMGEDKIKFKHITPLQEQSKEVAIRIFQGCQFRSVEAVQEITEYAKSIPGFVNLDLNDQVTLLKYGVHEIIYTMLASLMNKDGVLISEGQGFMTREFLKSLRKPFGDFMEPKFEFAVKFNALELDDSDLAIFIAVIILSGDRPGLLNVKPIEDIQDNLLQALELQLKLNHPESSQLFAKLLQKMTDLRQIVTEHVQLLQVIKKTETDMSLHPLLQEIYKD
Description: b) Determination of hPPARγ Activity
Ligand binding domain of hPPARγ1 is fused to DNA binding domain of Yeast transcription factor GAL4 in eucaryotic expression vector. Using lipofectamine (Gibco BRL, USA) as transfecting reagent HEK-293 cells are transfected with this plasmid and a reporter plasmid harboring the luciferase gene driven by a GAL4 specific promoter. Compound can be added at 1 μM concentration after 48 hrs of transfection and incubated overnight Luciferase activity as a function of drug binding/activation capacity of PPARγ1 will be measured using Packard Luclite kit (Packard, USA) in Packard Top Count (Ivan Sadowski, Brendan Bell, Peter Broag and Melvyn Hollis. Gene. 1992. 118 : 137-141; Guide to Eukaryotic Transfections with Cationic Lipid Reagents. Life Technologies, GIBCO BRL, USA).

[4] = Swiss albino mice, 3 mg/kg/d oral, 6 days
[5] = Mus musculus, 144 h, Swiss albino mice, 3 mg/kg/d oral, 6 days, read-out: % of Reduction in Triglyceride
[6] = Mus musculus, po, 144 h, read-out: % of Reduction in Triglyceride

| Compound | melting point | further results |
| --- | --- | --- |
| 2-Methyl-2-[3-{3-(3-methanesulfonyloxyphenoxy)propyloxy}phenoxy]propanoic acid Arginine salt [Example 61] |  | % of Reduction in Triglyceride [1, 4]: 51% |
| 2-Methyl-2-[3-{3-(4-methanesulfonyloxyphenoxy)propyloxy}phenoxy]propanoic acid Arginine salt [Example 66] |  | % of Reduction in Triglyceride [1, 4]: 71% |
| CCOC(CCCc1ccc(NCc2ccc3cc(OS(C)(=O)=O)ccc3c2)cc1)C(=O)O (centres unmarked) (as salt: salt) [Example 46, 2-Ethoxy-5-[4-{6-methanesulfonyloxynapth-2-ylmethylamino}phenyl]pentatonic acid Arginine salt] | 118 to 120 °C |  |
| CCOC(Cc1ccc(NCCCn2ccc3ccccc32)cc1)C(=O)O (centres unmarked) (as salt: salt) [Example 47, 2-Ethoxy-3-[4-{3-(indol-1-yl)propylamino}phenyl]propanoic acid Arginine salt] | 130 °C |  |
| CO[C@@H](Cc1ccc(NCCCn2ccc3ccccc32)cc1)C(=O)O (as salt: salt) [Example 48, (S)-2-Methoxy-3-[4-{3-(indol-1-yl)propylamino}phenyl]propanoic acid Arginine salt] | 105 °C |  |
| CCO[C@@H](Cc1ccc(NCCCn2ccc3cc(OS(C)(=O)=O)ccc32)cc1)C(=O)O (as salt: salt) [Example 49, (S)-2-Ethoxy-3-[4-{3-(5-methanesulfonyloxyindol-1-yl)propylamino}phenyl]propanoic acid Arginine salt] | 102 to 104 °C |  |
| CO[C@@H](Cc1ccc(NCCCn2ccc3cc(OS(C)(=O)=O)ccc32)cc1)C(=O)O (as salt: salt) [Example 50, (S)-2-Methoxy-3-[4-{3-(5-methanesulfonyloxyindol-1-yl)propylamino}phenyl]propanoic acid Arginine salt] | 102 to 104 °C |  |
| CCOC(Cc1ccc(NCCCN2CCc3ccccc32)cc1)C(=O)O (centres unmarked) (as salt: salt) [Example 52, 2-Ethoxy-3-[4-{3-2,3-dihydroindol-1-yl)propylamino}phenyl]propanoic acid Arginine salt] | 130 to 132 °C |  |
| CCOC(Cc1ccc(NCC2CCc3cc(OS(C)(=O)=O)ccc3C2)cc1)C(=O)O (centres unmarked) (as salt: salt) [Example 53, 2-Ethoxy-3-[4-{(6-methanesulfonyloxy-1,2,3,4-tetrahydronapth-2-yl)methylamino}phenyl]propanoic acid Arginine salt] | 96 to 98 °C |  |
| CCOC(Cc1ccc(NCCCC2CCc3cc(OS(C)(=O)=O)ccc3C2)cc1)C(=O)O (centres unmarked) (as salt: salt) [Example 54, 2-Ethoxy-3-[4-{3-(6-methanesulfonyloxy-1,2,3,4-tetrahydronapth-2-yl)propylamino}phenyl]propanoic acid Arginine salt] | 115 to 117 °C |  |
| CCOC(Cc1ccc(NCCCN2CCCc3ccccc32)cc1)C(=O)O (centres unmarked) (as salt: salt) [Example 55, 2-Ethoxy-3-[4-{3-1,2,3,4-tetrahydroquinolyn-1-yl)propylamino}phenyl]propanoic acid Arginine salt] | 134 to 136 °C |  |
| CCOC(=O)[C@H](Cc1ccc(NCc2ccc3cc(OS(C)(=O)=O)ccc3c2)cc1)OC [Example 1, (S)-Ethyl 2-methoxy-3-[4-(6-methanesulfonyloxynapth-2-ylmethylamino)phenyl]propanoate] | 94 to 96 °C | PPAR fold activation, PPAR α at 50 μM concentration [2]: 2.7 fold; PPAR fold activation, PPAR γ at 1 μM concentration [3]: 9.2 fold |
| CCOC(=O)C(C)(C)Oc1ccc(NCc2ccc3cc(OS(C)(=O)=O)ccc3c2)cc1 [Example 4, Ethyl 2-methyl-2-[4-{6-methanesulfonyloxynapth-2-ylmethylamino}phenoxy]propanoate] | 116 to 118 °C |  |
| CC(C)(Oc1ccc(NCc2ccc3cc(OS(C)(=O)=O)ccc3c2)cc1)C(=O)O [Example 26, 2-Methyl-2-[4-(6-methanesulfonyloxynapth-2-ylmethylamino}phenoxy]propanoic acid] | 182 to 184 °C | inhibition in vivo at 3 mg/kg/day [1, 5]: 10% |
| CC(C)(Oc1ccc(OCc2ccc3cc(OS(C)(=O)=O)ccc3c2)cc1)C(=O)O [Example 37, 2-Methyl-2-[4-{6-methanesulfonyloxynapth-2-ylmethoxy}phenoxy]propanoic acid] | 147 to 149 °C | inhibition in vivo at 3 mg/kg/day [1, 5]: 30% |
| CC(C)(Oc1cccc(CCCOc2ccc(OS(C)(=O)=O)cc2)c1)C(=O)O [Example 42, 2-Methyl-2-[3-{3-(4-methanesulfonyloxyphenoxy)propyl}phenoxy]propanoic acid] | 93 to 95 °C |  |
| CCOC(CCCc1ccc(NCc2ccc3cc(OS(C)(=O)=O)ccc3c2)cc1)C(=O)O (centres unmarked) [Example 46, 2-Ethoxy-5-[4-{6-methanesulfonyloxynapth-2-ylmethylamino}phenyl]pentatonic acid Arginine salt] |  | PPAR fold activation, PPAR α at 50 μM concentration [2]: 3.2 fold; PPAR fold activation, PPAR γ at 1 μM concentration [3]: 2.1 fold; inhibition in vivo at 10 mg/kg/day [1, 6]: 12% |
| CCOC(Cc1ccc(NCCCn2ccc3ccccc32)cc1)C(=O)O (centres unmarked) [Example 47, 2-Ethoxy-3-[4-{3-(indol-1-yl)propylamino}phenyl]propanoic acid Arginine salt] |  | PPAR fold activation, PPAR α at 50 μM concentration [2]: 4.8 fold; PPAR fold activation, PPAR γ at 1 μM concentration [3]: 6.7 fold; inhibition in vivo at 3 mg/kg/day [1, 6]: 60% |
| CCOC(Cc1ccc(NCCCN2CCc3ccccc32)cc1)C(=O)O (centres unmarked) [Example 52, 2-Ethoxy-3-[4-{3-2,3-dihydroindol-1-yl)propylamino}phenyl]propanoic acid Arginine salt] |  | PPAR fold activation, PPAR α at 50 μM concentration [2]: 4.0 fold; PPAR fold activation, PPAR γ at 1 μM concentration [3]: 6 fold |
| CCOC(Cc1ccc(NCCCC2CCc3cc(OS(C)(=O)=O)ccc3C2)cc1)C(=O)O (centres unmarked) [Example 54, 2-Ethoxy-3-[4-{3-(6-methanesulfonyloxy-1,2,3,4-tetrahydronapth-2-yl)propylamino}phenyl]propanoic acid Arginine salt] |  | inhibition in vivo at 3 mg/kg/day [1, 6]: 43% |
| CC(C)(Oc1ccc(CCCOc2ccc(-c3ccccc3)cc2)cc1)C(=O)O [Example 63, 2-{4-[3-(Biphenyl-4-yloxy)-propyl]-phenoxy}-2-methyl-propanoic acid] | 130 to 133 °C |  |
| CC(C)(C)OC(=O)Nc1ccc(OCCCc2ccc(OC(C)(C)C(=O)O)cc2)cc1 [Example 96, 2-Methyl-2-[4-{3-(4-(tert-butyloxycarbonylamino)phenoxy)propyl}phenoxy]propanoic acid] | 132 to 134 °C |  |
| CC(C)(Oc1ccc(CCCOc2ccc(NS(C)(=O)=O)cc2)cc1)C(=O)O [Example 97, 2-Methyl-2-[4-{3-(4-(methanesulfonylamino)phenoxy)propyl}phenoxy]propanoic acid] | 122 to 124 °C |  |
